Test results as given in patent publication US5985879A, “Compounds useful for inhibition of farnesyl protein transferase” (Schering Corporation, priority 1997, dated 1999).

How the values were obtained:
[1] = target: farnesyl protein transferase (H-ras) (Homo sapiens, UniProt P49354+P49356); assay: FPT IC50 (H-ras), inhibition of farnesyl protein transferase, in vitro enzyme assay; format: biochemical
Method: (§1) FPT IC50 (inhibition of farnesyl protein transferase, in vitro enzyme assay) and COS Cell IC50 (Cell-Based Assay) were determined following the assay procedures described in WO 95/10516, published Apr. 20, 1995. GGPT IC50 (inhibition of geranylgeranyl protein transferase, in vitro enzyme assay), Cell Mat Assay, and anti-tumor activity (in vivo anti-tumor studies) could be determined by the assay procedures described in WO 95/10516. The disclosure of WO 95/10516 is incorporated herein by reference thereto.

COS Cell = COS Cell IC50 (Cell-Based Assay); settings: COS cells
Method: as §1

[2] = target: farnesyl protein transferase (K-ras) (Homo sapiens, UniProt P49354+P49356); assay: FPT IC50 (K-ras), inhibition of farnesyl protein transferase, in vitro enzyme assay; format: biochemical
Method: as §1

Human tumor cells = assay: Soft Agar Assay (anchorage-independent growth); format: cell-based; settings: incubated 10-16 days at 37° C. under 5% CO2, MTT stain
Method: Anchorage-independent growth is a characteristic of tumorigenic cell lines. Human tumor cells are suspended in growth medium containing 0.3% agarose and an indicated concentration of a farnesyl transferase inhibitor. The solution is overlayed onto growth medium solidified with 0.6% agarose containing the same concentration of farnesyl transferase inhibitor as the top layer. After the top layer is solidified, plates are incubated for 10-16 days at 37° C. under 5% CO2 to allow colony outgrowth. After incubation, the colonies are stained by overlaying the agar with a solution of MTT (3-[4,5-dimethyl-thiazol-2-yl]-2,5-diphenyltetrazolium bromide, Thiazolyl blue) (1 mg/mL in PBS). Colonies can be counted and the IC50 's can be determined.

Compound: O=C(CC1CCN(c2nnnn2-c2ccccc2)CC1)N1CCC([C@H]2c3ncc(Br)cc3CCc3cc(Cl)cc(Br)c32)CC1 [Formula 2.0]
- IC50 [1]: 31 nM

Compound: O=C(CC1CCN(c2nccs2)CC1)N1CCC([C@H]2c3ncc(Br)cc3CCc3cc(Cl)cc(Br)c32)CC1 [Formula 3.0]
- IC50 [1]: 140 nM

Compound: O=C(CC1CCN(c2nc3ccccc3o2)CC1)N1CCC([C@H]2c3ncc(Br)cc3CCc3cc(Cl)cc(Br)c32)CC1 [Formula 4.0]
- IC50 [1]: 16 nM
- IC50 (COS Cell): 120 nM
- IC50 [2]: 91 nM

Compound: O=C(CC1CCN(c2ccccn2)CC1)N1CCC([C@H]2c3ncc(Br)cc3CCc3cc(Cl)cc(Br)c32)CC1 [Formula 5.0]
- IC50 [1]: 10.6 nM
- IC50 (COS Cell): 39 nM
- IC50 [2]: 29 nM
- IC50 (Human tumor cells): > 500 nM

Compound: O=C(CC1CCN(c2ncccn2)CC1)N1CCC([C@H]2c3ncc(Br)cc3CCc3cc(Cl)cc(Br)c32)CC1 [Formula 6.0]
- IC50 [1]: 20 nM
- IC50 (COS Cell): 68 nM

Compound: CC(=O)OC[C@H]1O[C@@H](N2CCC(CC(=O)N3CCC([C@H]4c5ncc(Br)cc5CCc5cc(Cl)cc(Br)c54)CC3)CC2)[C@H](OC(C)=O)[C@@H](OC(C)=O)[C@@H]1OC(C)=O [Formula 9.3]
- IC50 [1]: 4.6 nM
- IC50 (COS Cell): 35 nM
- IC50 [2]: 40.9 nM
- IC50 (Human tumor cells): 80 nM
